Experiment [1] deals with CD271 expression in melanoma cell lines. In words: CD271 protein expression by Western blotting and flow cytometry. To be noted: WM115, WM266-4 and SKMEL28, 1 to 2.5 mM, 48 h treatment. The class given is cell-based, human. On the procedure:
FIG. 7. Chemotherapy up-regulates CD271 in primary and metastatic melanoma cell lines. (A) A real-time PCR using primers for intra- and extracellular CD271 receptor was performed on RNA extracts from three melanoma cell lines after treatment with carmustine (BCNU), cisplatin, dacarbazine (DTIC) or diluent. (B) Protein extracts from the three melanoma cell lines treated with different doses of cisplatin, carmustine, dacarbazine or diluent were separated on polyacrylamide gel and transferred onto nitrocellulose membranes. (C) Melanoma cell lines were treated with the chemotherapy or the diluent (see above) stained with anti CD271 mAb and analysed by flow cytometry.
FIG. 13. Non-steroid anti-inflammatory drugs (NSAID) enhance CD271 levels in melanoma cell lines. Three melanoma cell lines were treated with increasing doses of ketoprofen (A) or ibuprofen (B) and the percentage of CD271 positive cells was measured by flow cytometry.
Melanoma cell lines were treated with the chemotherapy or the diluent for 48 h, then were harvested and incubated with anti CD271 antibody (1:100 in PBS, Lab Vision Corporation, Thermo Fisher Scientific, Fremont, Calif., USA) for 20 min at 4° C. Cells were labeled with secondary antibody Alexa Fluor anti-mouse 488 (1:50, Thermo Fisher Scientific) for 20 min at 4° C. and analyzed with Epics XL flow cytometer (Beckman Coulter). […]

Experiment [2] relates to melanoma cell lines (WM115, WM266-4, SKmel28, WM793B, 1205Lu). The experiment can be described thus: MTT assay in melanoma cell lines. The experiment is classed as cell-based, human. The settings on record: for proliferation (MTT assay) with NSAID: WM115, WM266-4 and SKMEL28, increasing concentrations, 48 hrs. On the procedure: 5×10^3 cells/well were seeded in 96-well culture plates. At different time points, cells were incubated with 0.5% MTT (3-(4,5-dimethylthiazol-2-yl)-2,5-diphenyltetrazolium bromide) for 4 h at 37° C. and then dissolved with 100 μl Isopropanol with 0.04N HCl. The plate was read at 560 nm with a reference filter of 650 nm. Results are expressed as viability percentage, as compared to control.
Five melanoma cell lines were used for testing the efficacy of XYZ or its non-PEGylated peptide component: WM115 and WM266-4, which are respectively the primary and metastatic melanoma derived from the same patient and expressing high levels of CD271, and SKme128, a metastatic melanoma cell line expressing low levels of CD271, WM793B, a primary melanoma, and 1205Lu derived from lung metastatic melanoma. The viability of the cell culture is assessed by MTT conversion. MTT solution is applied to the plates and placed into a cell culture incubator for 4 hours. The blue formazan metabolite produced by viable cells is then extracted into isopropanol and absorbance is measured at 570 nm using a spectrophotometer.

Non-standard residues stand in square brackets, D forms with d.

As for `CC(C)Cc1ccc(C(C)C(=O)O)cc1` (centres unmarked) [ibuprofen, reference compound], the “CD271 protein levels (percentage of CD271 positive cells, flow cytometry)” value in experiment [1] is “increased CD271 protein levels”. The “proliferation (MTT assay) with NSAID” value in experiment [2] is given as “dose-dependently decreases proliferation”.
Take `CC(C(=O)O)c1cccc(C(=O)c2ccccc2)c1` (centres unmarked) [ketoprofen, reference compound]: the “CD271 protein levels (percentage of CD271 positive cells, flow cytometry)” value in experiment [1] is “increased CD271 protein levels”. In addition, the “proliferation (MTT assay) with NSAID” value in experiment [2] is given as “dose-dependently decreases proliferation”.
In the case of “Ac-[dM][dL]G[dI][dI][dA]G[dK][dN][dS]G-NH2 [non-PEGylated peptide]”, in experiment [2] (five melanoma cell lines, 48 h and 96 h after treatment, no significant difference between PEGylated and non-PEGylated form), the “cell proliferation (MTT assay)” value is listed as “reduce cell proliferation”.

The record behind these values is patent US20230137491A1, “PEPTIDES AND USES THEREOF” (SINTICA BIOTECH SOCIETÀ A RESPONSABILITÀ LIMITATA …, priority 2020, published 2023).
